Laboratory results published in PMC6471386, “Cloning, Expression, and Characterization of a Psychrophilic Glucose 6-Phosphate Dehydrogenase from Sphingomonas sp. PAMC 26621” (International Journal of Molecular Sciences, 2019).

Target: T1, SpG6PD1 (Sphingomonas sp. PAMC 26621, UniProt Z9Q3C2ML64)
T1 construct: cloning primer appears to add Gly after Met1 (ATGGGGCCAATC); 56 kDa on SDS-PAGE; tag removal not mentioned
T1 sequence (Z9Q3C2ML64 1-488): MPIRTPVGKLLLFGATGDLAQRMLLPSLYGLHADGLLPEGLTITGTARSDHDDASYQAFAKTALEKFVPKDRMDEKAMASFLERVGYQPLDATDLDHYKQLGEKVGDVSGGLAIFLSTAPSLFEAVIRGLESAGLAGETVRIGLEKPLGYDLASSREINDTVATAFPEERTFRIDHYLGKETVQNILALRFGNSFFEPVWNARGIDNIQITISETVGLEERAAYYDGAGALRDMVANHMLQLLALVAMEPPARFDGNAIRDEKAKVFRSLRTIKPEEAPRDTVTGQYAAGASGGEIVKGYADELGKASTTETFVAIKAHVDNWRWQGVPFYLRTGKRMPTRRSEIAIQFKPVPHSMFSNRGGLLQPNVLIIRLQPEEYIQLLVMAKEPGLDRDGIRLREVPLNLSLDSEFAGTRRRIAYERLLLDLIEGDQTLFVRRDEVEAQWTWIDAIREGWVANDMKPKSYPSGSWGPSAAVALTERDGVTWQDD
Experiment: NAD(P)H formation at […] nm, Lineweaver-Burk
Assay type: biochemical
Conditions: NADP+ as co-substrate (assay mixture 100 µM); G6P varied 500-2000 µM; 50 mM Tris-HCl pH 8.0, 25 mM NaCl, 0.1 mM EDTA, 5% glycerol; 30 °C

O=P(O)(O)OC[C@H]1OC(O)[C@H](O)[C@@H](O)[C@@H]1O (stereo partly shown) [glucose 6-phosphate]
Km: 145 ± 2 µM
